Assay results taken from patent US12054660B2, “Compound, composition, cured substance, optically anisotropic body, optical element, and light guide element” (FUJIFILM Corporation, priority 2021, dated 2024).

assay: Evaluation of liquid crystallinity (hot stage, polarization microscope); type: physicochemical; design: key: A case of having liquid crystallinity was evaluated as A; a case of having no liquid crystallinity was evaluated as B; settings: heated on a hot stage
Source text: As a specific observation method, optical anisotropy and fluidity derived from the liquid crystal phase can be checked by carrying out an observation under a polarization microscope while heating or lowering the temperature of the compound with a hot stage or the like.
The respective compounds of Examples and Comparative Examples (the compounds A-1, A-3 to A-20, and the compounds RA-1 and RA-2) were heated on a hot stage and observed with a polarization microscope, and the phase transition temperature was measured to evaluate the presence or absence of liquid crystallinity. A case of having liquid crystallinity was evaluated as A, and a case of having no liquid crystallinity was evaluated as B. The results are shown in Table 1.

Row | SMILES | Liquid crystallinity
1 | CC(=O)OCCSc1ccc(C#Cc2ccc(COc3ccc(C#Cc4ccc(CCOC(C)=O)cc4)cc3)cc2C)cc1 [Compound A-13] | A
2 | C=CC(=O)OCCSc1ccc(C#Cc2ccc(COc3ccc(OCc4ccc(C#Cc5ccc(SCCOC(=O)C=C)cc5)cc4)c(C(=O)OC)c3)cc2)cc1 [Compound A-14] | A
3 | CC(=O)OCCSc1ccc(C#Cc2ccc(OCc3ccc(C#Cc4ccc(COc5ccc(C#Cc6ccc(SCCOC(C)=O)cc6)cc5C)cc4)cc3)c(C)c2)cc1 [Compound A-15] | A
4 | C=CC(=O)OCCSc1ccc(C#Cc2ccc(OCc3ccc(C#Cc4ccc(SCCOC(=O)C=C)cc4)s3)c(C(=O)OC)c2)cc1 [Compound A-16] | A
5 | C=CC(=O)OCCOc1ccc(C#Cc2ccc(SCCSc3ccc(C#Cc4ccc(OCCOC(=O)C=C)c(C)c4)cc3)cc2)cc1C [Compound A-17] | B
6 | C=CC(=O)OCCSc1ccc(C#Cc2ccc(OCCOc3ccc(C#Cc4ccc(SCCOC(=O)C=C)cc4)cc3C(=O)OC)c(C(=O)OC)c2)cc1 [Compound A-18] | A

assay: Evaluation of solubility in methyl ethyl ketone; type: physicochemical; settings: precipitation concentration in methyl ethyl ketone at room temperature (25° C.)
Experimental: The solubility of each of the compounds of Examples and Comparative Examples (the compounds A-1, A-3 to A-20, and the compounds RA-1 and RA-2) in methyl ethyl ketone was evaluated. A solution in which the compound was ultrasonically dissolved or dissolved by heating was produced.

Row | SMILES | Solubility
7 | CC(=O)OCCSc1ccc(C#Cc2ccc(COc3ccc(C#Cc4ccc(CCOC(C)=O)cc4)cc3)cc2C)cc1 [Compound A-13] | A (the solubility in a case where the precipitation concentration was 10% by mass or more was evaluated as A)
8 | C=CC(=O)OCCSc1ccc(C#Cc2ccc(COc3ccc(OCc4ccc(C#Cc5ccc(SCCOC(=O)C=C)cc5)cc4)c(C(=O)OC)c3)cc2)cc1 [Compound A-14] | B (the solubility in a case where the precipitation concentration was less than 10% by mass was evaluated as B)
9 | CC(=O)OCCSc1ccc(C#Cc2ccc(OCc3ccc(C#Cc4ccc(COc5ccc(C#Cc6ccc(SCCOC(C)=O)cc6)cc5C)cc4)cc3)c(C)c2)cc1 [Compound A-15] | B (the solubility in a case where the precipitation concentration was less than 10% by mass was evaluated as B)
10 | C=CC(=O)OCCSc1ccc(C#Cc2ccc(OCc3ccc(C#Cc4ccc(SCCOC(=O)C=C)cc4)s3)c(C(=O)OC)c2)cc1 [Compound A-16] | A (the solubility in a case where the precipitation concentration was 10% by mass or more was evaluated as A)
11 | C=CC(=O)OCCOc1ccc(C#Cc2ccc(SCCSc3ccc(C#Cc4ccc(OCCOC(=O)C=C)c(C)c4)cc3)cc2)cc1C [Compound A-17] | A (the solubility in a case where the precipitation concentration was 10% by mass or more was evaluated as A)
12 | C=CC(=O)OCCSc1ccc(C#Cc2ccc(OCCOc3ccc(C#Cc4ccc(SCCOC(=O)C=C)cc4)cc3C(=O)OC)c(C(=O)OC)c2)cc1 [Compound A-18] | A (the solubility in a case where the precipitation concentration was 10% by mass or more was evaluated as A)

assay: Evaluation of light resistance of optically anisotropic layer; type: physicochemical; settings: rate of change in Re of layer (25 parts compound/75 parts L-1) after xenon irradiation 50 hours, 63° C., 50% RH, oxygen-blocking
Experimental: (§1) As shown below, the durability of the optically anisotropic layer produced using the composition containing each of the compounds A-1 and A-3 to A-20, and the compounds RA-1 and RA-2 was evaluated.
(§2) A coating composition having the following composition was prepared and applied by spin coating onto a rubbing-treated glass attached with an alignment film.
(§3) The polymerizable liquid crystal compound L-1 is a mixture obtained by mixing at a ratio of the following L-1-1/L-1-2/L-1-3=84/14/2 (in terms of mass ratio).
The produced optically anisotropic layers for light resistance/durability tests were irradiated with light using a Super Xenon Weather Meter SX75 manufactured by Suga Test Instruments Co., Ltd. Using KU-1000100 manufactured by King Seisakusho Co., Ltd. as an ultraviolet ray cut filter, irradiation with 5 million 1× of light was carried out for 50 hours under the oxygen-blocking conditions to carry out a light resistance test. The temperature of the specimen to be tested (the temperature inside the test device) was set to 63° C. The relative humidity in the test device was 50% RH.
The Re of the optically anisotropic layer before and after the light resistance test was measured, the light resistance in a case where the rate of change in Re described below was less than 10% was evaluated as A, and the light resistance in a case where the rate of change in Re was 10% or more was evaluated as B. The smaller the rate of change in Re, the more excellent the light resistance.
(§4) Re is an in-plane retardation. Rate of change in Re (%)=[100×{|(Re after test)−(Re before test)|}/(Re before test)]
(§5) Re was measured with Axoscan manufactured by Axometrics, Inc. at a wavelength of 550 nm, and the measurement temperature was set to room temperature.

Row | SMILES | Light resistance
13 | CC(=O)OCCSc1ccc(C#Cc2ccc(COc3ccc(C#Cc4ccc(CCOC(C)=O)cc4)cc3)cc2C)cc1 [Compound A-13] | A (the light resistance in a case where the rate of change in Re described below was less than 10% was evaluated as A)
14 | C=CC(=O)OCCSc1ccc(C#Cc2ccc(COc3ccc(OCc4ccc(C#Cc5ccc(SCCOC(=O)C=C)cc5)cc4)c(C(=O)OC)c3)cc2)cc1 [Compound A-14] | A (the light resistance in a case where the rate of change in Re described below was less than 10% was evaluated as A)
15 | CC(=O)OCCSc1ccc(C#Cc2ccc(OCc3ccc(C#Cc4ccc(COc5ccc(C#Cc6ccc(SCCOC(C)=O)cc6)cc5C)cc4)cc3)c(C)c2)cc1 [Compound A-15] | A (the light resistance in a case where the rate of change in Re described below was less than 10% was evaluated as A)
16 | C=CC(=O)OCCSc1ccc(C#Cc2ccc(OCc3ccc(C#Cc4ccc(SCCOC(=O)C=C)cc4)s3)c(C(=O)OC)c2)cc1 [Compound A-16] | B (the light resistance in a case where the rate of change in Re was 10% or more was evaluated as B)
17 | C=CC(=O)OCCOc1ccc(C#Cc2ccc(SCCSc3ccc(C#Cc4ccc(OCCOC(=O)C=C)c(C)c4)cc3)cc2)cc1C [Compound A-17] | A (the light resistance in a case where the rate of change in Re described below was less than 10% was evaluated as A)
18 | C=CC(=O)OCCSc1ccc(C#Cc2ccc(OCCOc3ccc(C#Cc4ccc(SCCOC(=O)C=C)cc4)cc3C(=O)OC)c(C(=O)OC)c2)cc1 [Compound A-18] | A (the light resistance in a case where the rate of change in Re described below was less than 10% was evaluated as A)

assay: Measurement of Δn (refractive index anisotropy), wedge-shaped liquid crystal cell; type: physicochemical; settings: 550 nm, 30° C. or lower limit temperature of nematic phase+0 to 10° C.; some extrapolated from 1/2 mixture with L-1-1
Experimental: The Δn of each of the compounds of Examples and Comparative Examples (the compounds A-1, A-3 to A-20, and the compounds RA-1 and RA-2), which are the compounds to be measured, was measured by a method using a wedge-shaped liquid crystal cell described on page 202 in the Liquid crystal handbook (edited by the liquid crystal handbook editorial board, published by Maruzen Co., Ltd., 2000). An was defined as a measured value at a wavelength of 550 nm at 30° C. or the lower limit temperature of the nematic phase+0° C. to 10° C. In a case of a compound which is liable to crystallize or a compound having no liquid crystallinity, evaluation was carried out using a mixture thereof with the other liquid crystal compound, and Δn was estimated from the extrapolated value of the measured value thereof. The following L-1-1 was used as the other liquid crystal compound. As the above mixture, a mixture obtained by mixing at a ratio of the compound to be measured/the L-1-1=1/2 (in terms of mass ratio) was used.
A case where Δn was 0.35 or more was evaluated as A, a case where Δn was 0.32 or more and less than 0.35 was evaluated as B, a case where Δn was 0.30 or more and less than 0.32 was evaluated as C, and a case where Δn was less than 0.30 was evaluated as D. The results are shown in Table 1.

Row | SMILES | Δn
19 | CC(=O)OCCSc1ccc(C#Cc2ccc(COc3ccc(C#Cc4ccc(CCOC(C)=O)cc4)cc3)cc2C)cc1 [Compound A-13] | B (a case where Δn was 0.32 or more and less than 0.35 was evaluated as B)
20 | C=CC(=O)OCCSc1ccc(C#Cc2ccc(COc3ccc(OCc4ccc(C#Cc5ccc(SCCOC(=O)C=C)cc5)cc4)c(C(=O)OC)c3)cc2)cc1 [Compound A-14] | A (A case where Δn was 0.35 or more was evaluated as A)
21 | CC(=O)OCCSc1ccc(C#Cc2ccc(OCc3ccc(C#Cc4ccc(COc5ccc(C#Cc6ccc(SCCOC(C)=O)cc6)cc5C)cc4)cc3)c(C)c2)cc1 [Compound A-15] | A (A case where Δn was 0.35 or more was evaluated as A)
22 | C=CC(=O)OCCSc1ccc(C#Cc2ccc(OCc3ccc(C#Cc4ccc(SCCOC(=O)C=C)cc4)s3)c(C(=O)OC)c2)cc1 [Compound A-16] | A (A case where Δn was 0.35 or more was evaluated as A)
23 | C=CC(=O)OCCOc1ccc(C#Cc2ccc(SCCSc3ccc(C#Cc4ccc(OCCOC(=O)C=C)c(C)c4)cc3)cc2)cc1C [Compound A-17] | A (A case where Δn was 0.35 or more was evaluated as A)
24 | C=CC(=O)OCCSc1ccc(C#Cc2ccc(OCCOc3ccc(C#Cc4ccc(SCCOC(=O)C=C)cc4)cc3C(=O)OC)c(C(=O)OC)c2)cc1 [Compound A-18] | A (A case where Δn was 0.35 or more was evaluated as A)

assay: Evaluation of durability (moisture-heat resistance test) of optically anisotropic layer; type: physicochemical; settings: rate of change in Re of layer (25 parts compound/75 parts L-1) after 136 hours at 100° C., 95% RH
Experimental: as §1, §2, §3, §4, §5
The produced optically anisotropic layer was allowed to be left for 136 hours at 100° C. and a relative humidity of 95% RH, whereby a moisture-heat resistance test was carried out. The rate of change in Re before and after the durability test was evaluated, the durability in a case where the rate of change in Re was less than 10% was evaluated as A, and the durability in a case where the rate of change in Re was 10% or more was evaluated as B. The smaller the rate of change in Re, the more excellent the durability.

Row | SMILES | Durability
25 | CC(=O)OCCSc1ccc(C#Cc2ccc(COc3ccc(C#Cc4ccc(CCOC(C)=O)cc4)cc3)cc2C)cc1 [Compound A-13] | B (the durability in a case where the rate of change in Re was 10% or more was evaluated as B)
26 | C=CC(=O)OCCSc1ccc(C#Cc2ccc(COc3ccc(OCc4ccc(C#Cc5ccc(SCCOC(=O)C=C)cc5)cc4)c(C(=O)OC)c3)cc2)cc1 [Compound A-14] | A (the durability in a case where the rate of change in Re was less than 10% was evaluated as A)
27 | CC(=O)OCCSc1ccc(C#Cc2ccc(OCc3ccc(C#Cc4ccc(COc5ccc(C#Cc6ccc(SCCOC(C)=O)cc6)cc5C)cc4)cc3)c(C)c2)cc1 [Compound A-15] | B (the durability in a case where the rate of change in Re was 10% or more was evaluated as B)
28 | C=CC(=O)OCCSc1ccc(C#Cc2ccc(OCc3ccc(C#Cc4ccc(SCCOC(=O)C=C)cc4)s3)c(C(=O)OC)c2)cc1 [Compound A-16] | A (the durability in a case where the rate of change in Re was less than 10% was evaluated as A)
29 | C=CC(=O)OCCOc1ccc(C#Cc2ccc(SCCSc3ccc(C#Cc4ccc(OCCOC(=O)C=C)c(C)c4)cc3)cc2)cc1C [Compound A-17] | A (the durability in a case where the rate of change in Re was less than 10% was evaluated as A)
30 | C=CC(=O)OCCSc1ccc(C#Cc2ccc(OCCOc3ccc(C#Cc4ccc(SCCOC(=O)C=C)cc4)cc3C(=O)OC)c(C(=O)OC)c2)cc1 [Compound A-18] | A (the durability in a case where the rate of change in Re was less than 10% was evaluated as A)
